Read-outs that look alike come from different tables or passages of the source.
How the values were obtained:
[1] = tested on: Human keratinocytes (TGase I); test: Transglutaminase (TGase I) ELISA in cultured keratinocytes, normalized to DNA (Example 1); format: cell-based; details: for dose dependence of decrease in transglutaminase level: 2.5×10^-7 M to 2.5×10^-9 M; for mean TGase/DNA × 10^-4 ± s.d: 72 hours, n = 3, Control 2.44 ± 0.24
Procedure: Human keratinocytes, isolated from neonatal foreskin by trypsin treatment were grown in Dulbecco Modification Eagle (DME) Hams F12 (1:1) medium/10% fetal calf serum in the presence of irradiated 3T3 mouse fibroblasts for establishing dividing keratinocyte colonies. Cells were grown under the above condition until their second passage and kept frozen for future use. Frozen second passage keratinocytes were thawed and plated into the above medium and grown for five days before they were switched to a serum-free MCDB 153-based medium keratinocyte growth medium (KGM) from Clonetics Corporation, San Diego, Calif., containing 0.15 mM Ca, or keratinocyte serum-free media (KSFM) from GIBCO containing 0.09 mM Ca). On day 7, when the cells were 80-90% confluent, they were trypsinized and plated in the serum-free medium for the various experiments.
(§1) During the process of terminal differentiation in the epidermis, a 15 nm thick layer of protein, known as the cornified envelope (CE) is formed on the inner surface of the cell periphery. The CE is composed of numerous distinct proteins which have been cross-linked together by the formation of N^ε -(γ-glutamyl) lysine isodipeptide bonds catalyzed by the action of at least two different transglutaminases (TGases) expressed in the epidermis. TGase I is expressed in abundance in the differentiated layers of the epidermis, especially the granular layer, but is absent in the undifferentiated basal epidermis. Thus TGase I is a useful marker of epidermal keratinocyte differentiation with high TGase I levels indicating a more differentiated state. An ELISA based TGase I assay, using a TGase I antibody, was used to assess the state of differentiation of the cultured keratinocytes in the examples that follow.
For Example 1, the following procedure was used:
Keratinocytes (cultured as described above) were plated in 96 well plates at a density of 3,000 cells per well in 200 μl media. After incubation for four days the media was changed to media containing test compounds (six replicates per test). The cells were cultured for a further 72 hours after which time the media was aspirated and the plates stored at -70° C. Plates were removed from the freezer, and the cells washed with PBS. 100 μl sterile water was added and the cells were freeze fractured by freezing at -70° C. then thawing. The cells were incubated for one hour at room temperature (R/T) with PBS/3% BSA (wash buffer, bovine serum albumin), then rinsed with a fresh aliquot of wash buffer. Cells were incubated with 50 μl of primary antibodies monoclonal anti-human transglutaminase mouse antibody (IgG) obtained from Biomedical Industries diluted 1:2,000 in wash buffer for one hour, 37° C. then rinsed two times with wash buffer. Cells were then incubated with 50 μl of secondary antibody (Fab fragment, peroxidase conjugated anti-mouse IgG obtaining from Amersham) diluted 1:4,000 in wash buffer for one hour at 37° C., then rinsed two times with wash buffer. Cells were incubated with substrate solution (4 mg o-phenylene diamine and 3.3 μl 30% H2 O2 in 10 ml 0.1 M citrate buffer pH 5.0) for five minutes, R/T, in darkness (under aluminum foil). The reaction was stopped by the addition of 50 μl 4N H2 SO4. The absorbance of samples was read at 492 nm in the plate reader. Out of the six replicates, four were treated with both antibodies, two were treated only with the secondary antibody (i.e., to determine background binding of enzyme conjugated Ab). TGase levels were determined by subtracting background from the readings from each treatment and determining mean±s.d. for the replicates exposed to both Ab.
The level of TGase-1 detected after treatment of the cells could be influenced by cell number, i.e., the greater the number of cells the greater the level of TGase-1 detected. The level of TGase-1 was normalized to DNA content of the cells in the same well thus eliminating variation due to differences in cell number. […]

[2] = tested on: Human keratinocytes (TGase I); test: Transglutaminase (TGase I) ELISA in cultured keratinocytes, normalized to DNA (Example 3); format: cell-based; details: for mean TGase/DNA × 10^5 ± s.d: Control 57.80 ± 8.61; for activity at 0.25 µM: Homo sapiens, Keratinocyte, read-out: mean TGase/DNA (% control)
Procedure: Human keratinocytes, isolated from neonatal foreskin by trypsin treatment were grown in Dulbecco Modification Eagle (DME) Hams F12 (1:1) medium/10% fetal calf serum in the presence of irradiated 3T3 mouse fibroblasts for establishing dividing keratinocyte colonies. Cells were grown under the above condition until their second passage and kept frozen for future use. […] On day 7, when the cells were 80-90% confluent, they were trypsinized and plated in the serum-free medium for the various experiments.
as §1
Keratinocytes (cultured as described above) were plated in 96 well plates at a density of 3,000 cells per well in 200 μl of cell culture media. After incubation for four days, the media was changed to media containing test compounds (six replicates per test). The cells were cultured for a further 72 hours after which time the media was aspirated and the plates stored at -70° C. After the plates were removed from the freezer, the cells were further freezed fractured by freezing and thawing and then washed 3× with PBS. The cells were incubated for one hour at room temperature (R/T) with TBS/5% BSA buffer. Cells were then incubated with 100 μl of monoclonal anti-human transglutaminase (IgG) mouse antibody (primary antibody) obtained from Biomedical Technologies Inc. diluted 1:2000 in TBS/1% BSA buffer for two hours at 37° C., and then rinsed six times with wash buffer (TBS/1% BSA/0.05% Tween-20). Cells were next incubated with 100 μl of Fab fragment, peroxidase conjugated anti-mouse IgG antibody (secondary antibody) from Amersham diluted 1:4,000 in wash buffer for two hours at 37° C. and then rinsed three times with wash buffer and three times with PBS. Cells were incubated with substrate solution (4 mg o-phenylene diamine and 3.3 μl 30% H2 O2 in 10 mL 0.1M citrate buffer, pH 5.0) for five minutes at R/T and in darkness (under aluminum foil). […] The absorbance of samples was read at 492 nm in the plate reader. […] Transglutaminase I levels were determined by subtracted background from the readings from each treatment and determining the mean s.d. for the replicates exposed to both antibodies.
The level of TGase-1 was normalized to DNA content of the cells in the same well thus eliminating variation due to differences in cell number. DNA quantitation is a particularly useful indicator of cell number, including keratinocyte cell number, because each cell has to all intents and purposes an identical genome and therefore an identical quantity of DNA. […] Quantitation of DNA was used to normalize the TGase data to cell number. […]

[3] = tested on: ARAT; test: In vitro Microsomal Esterification of Retinol, ARAT catalyzed; format: biochemical, bovine; details: 100 μM; 1 hour at 37° C.; pH 7
Procedure: (§2) Microsomes are obtained as described in: J. C. Saari and D. L. Bredberg, "CoA and Non-CoA Dependent Retinol Esterification in Retinal Figment Epithelium" J. Biol. Chem. 263, 8084-90 (1988).
(§3) A solution containing 0.1M sodium phosphate pH 7 buffer, 5 mM dithiothreitol, 2 mg/ml bovine serum albumin, 40 micromolar palmitoyl CoA, 40 micromolar dilauroyl phosphatidyl choline, 10 micromolar retinol and a test compound or a solvent blank, is incubated for 1 hour at 37° C. with a microsomal fraction isolated from bovine retinal pigment epithelial cells. After incubation, the reaction was quenched by addition of an equal volume of ethanol, and the retinyl esters formed (retinyl laurate from the LRAT catalyzed reaction and retinyl palmitate from ARAT catalyzed reaction) are extracted with hexane. The hexane layer is removed, evaporated under nitrogen, and the residue analyzed by HPLC on a 3.9×300 mm C18 reversed phase column using a 80% methanol in tetrahydrofuran mobile phase and fluorescence detection (325 nm excitation, 480 nm emission) to quantitate the retinyl ester. The quantity of ester formed in the presence of the solvent blank is taken as 100%, and this is used to calculate the percent inhibition of ester formation for the compounds tested. As a control, an aliquot of microsomes is inactivated by boiling for 5 minutes, which results in at least 95% inhibition of ester formation. […]

[4] = biological target: T1, LRAT (Bos taurus, UniProt Q9BGL2); test: In vitro Microsomal Esterification of Retinol, LRAT catalyzed; format: biochemical, bovine; details: 1 hour at 37° C., pH 7
T1 construct: microsomal fraction isolated from bovine retinal pigment epithelial cells; from tissue; host or cells: microsomes of bovine retinal pigment epithelial cells
T1 sequence (Q9BGL2 1-230): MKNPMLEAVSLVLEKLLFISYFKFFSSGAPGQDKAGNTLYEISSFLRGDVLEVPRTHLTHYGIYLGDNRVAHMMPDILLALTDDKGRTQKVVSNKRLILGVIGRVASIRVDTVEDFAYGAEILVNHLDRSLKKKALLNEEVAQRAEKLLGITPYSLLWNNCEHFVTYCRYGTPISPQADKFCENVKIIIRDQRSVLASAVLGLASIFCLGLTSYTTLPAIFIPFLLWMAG
Procedure: as §2, §3

SMILES | dose dependence of decrease in transglutaminase level [1] | mean TGase/DNA × 10^-4 ± s.d ([1]; 2.5 × 10^-7 M) | mean TGase/DNA × 10^-4 ± s.d ([1]; 2.5 × 10^-8 M) | mean TGase/DNA × 10^-4 ± s.d ([1]; 2.5 × 10^-9 M) | inhibition of keratinocyte TG1 level when used alone (in words) ([2]; 2.5×10^-7 M retinol, 10^-4 M Formula A, used alone, compared with 2.5×10^-7 M retinoic acid) | mean TGase/DNA × 10^5 ± s.d ([2]; 2.5 × 10^-7 M, 72 hours, n = 3) | activity at 0.25 µM ([2]; 2.5 × 10^-7 M, 72 hours, n = 3) [%] | decrease of keratinocyte differentiation compared with corresponding retinol treatments ([1]; 2.5×10^-7 M, 2.5×10^-8 M and 2.5×10^-9 M, vs retinol at same concentration) | effect on keratinocyte differentiation vs ethanol control ([1]; all concentrations tested: 2.5×10^-7 M, 2.5×10^-8 M and 2.5×10^-9 M) | activity at 0.25 µM ([2]; 72 h) [%] | % INHIBITION, ARAT [3] [%] | inhibition at 100 µM [4] [%]
CC1=C(/C=C/C(C)=C/C=C/C(C)=C/CO)C(C)(C)CCC1 [Retinol] | dose dependent | 1.14 ± 0.22 × 10^-4 | 1.89 ± 0.30 × 10^-4 | 2.70 ± 0.59 × 10^-4 | less effective | 45.60 ± 3.92 × 10^5 | 79 |  |  |  |  | 
CC1=C(/C=C/C(C)=C/C=C/C(C)=C/C(=O)O)C(C)(C)CCC1 [Retinoic acid] | dose dependent |  |  |  |  | 39.99 ± 5.28 × 10^5 |  | significantly greater extent | decreased keratinocyte differentiation | 69 |  | 
CCCCCCCC(=O)NC(COC)COC [Formula C] |  |  |  |  |  |  |  |  |  |  | 0 | 0

From patent publication US5955092A, “Skin care compositions containing an n-substituted fatty acid amide and retinol or retinyl ester” (Elizabeth Arden Co., Division of Conopco, Inc., priority 1996, dated 1999)
